# Source: ChEMBL document CHEMBL1201862, “PubChem BioAssay data set” (2004)
#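 Assay format: 96-well plates, 48-hour exposure. The concentration for 50% growth inhibition is given as GI50.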 Activity calls are given as the source filed them. No stated cut-off is given here; in the data, active = GI50 up to about 1.1 µM and inactive = higher.
# Experiments:
# Assay in all cases: NCI-60 cell line screen, 48 h
# DLD-1 = system: DLD-1
# DMS-114 = system: DMS-114
# KM-20L2 = system: KM-20L2
# DMS-273 = system: DMS-273
# SNB-78 = system: SNB-78
# XF498 = system: XF498
# BT-549 = system: BT-549
# HOP-18 = system: HOP-18
# RXF 631 = system: RXF 631
SMILES,GI50 (DLD-1),GI50 (DMS-114),GI50 (BT-549),other results
CC1C(c2ccccc2)N(C)C(c2ccccc2)C(C)C1(O)c1ccccc1 (stereo unspecified),> 100 µM (inactive),> 100 µM (inactive),–,GI50 (KM-20L2): > 100 µM (inactive); GI50 (DMS-273): 40.7 µM (inactive); GI50 (SNB-78): > 100 µM (inactive)
NCCCOc1ccc([N+](=O)[O-])cc1Cl,> 100 µM (inactive),> 100 µM (inactive),–,GI50 (KM-20L2): > 100 µM (inactive); GI50 (DMS-273): > 100 µM (inactive); GI50 (XF498): > 100 µM (inactive)
CCOC(=O)c1c(N)sc2c1C(C(=O)OCC)CCC2 (stereo unspecified),–,–,> 100 µM (inactive),–
COc1ccc(COCC[C@H](C)OC2OC(CO[Si](C)(C)C(C)(C)C)C(OC(=O)CCCN=[N+]=[N-])C(OC(=O)CCCN=[N+]=[N-])C2OC(=O)CCCN=[N+]=[N-])cc1 (stereo partly specified),–,–,22.2 µM (inactive),–
Cc1cccc2c1C(=O)[C@](C)([C@]1(C)Nc3cccc(C)c3C1=O)N2,–,–,20.8 µM (inactive),–
CCC(=O)CC(=O)CCC(=O)Nc1cc(C)ccc1C,> 100 µM (inactive),–,–,GI50 (HOP-18): > 100 µM (inactive); GI50 (KM-20L2): > 100 µM (inactive); GI50 (SNB-78): > 100 µM (inactive); GI50 (XF498): > 100 µM (inactive)
CC(=O)Nc1ccc2c3c(cc(O)c2c1)N(C(=O)CCCCC(=O)Nc1ccc2c4c(cc(O)c2c1)N(C(=O)OC(C)(C)C)CC4CCl)CC3CCl (stereo unspecified),–,–,1.77 µM (inactive),–
COC(=O)c1ccc(CN2CCc3c([nH]c4ccccc34)C2CO)o1 (stereo unspecified),–,–,> 10 µM (inactive),–
Nc1cc(CO)cc(Nc2c3ccccc3nc3occc23)c1,–,–,19.4 µM (inactive),–
O=[N+]([O-])c1ccccc1S(=O)(=O)c1cc(O)cc2c1NCCC2,–,–,13.2 µM (inactive),–
CC(C)=CCC/C(C)=C/CC/C(C)=C/[C@@H]1[C@@H](CO)[C@]1(C)CC/C=C(\C)CCC=C(C)C,–,–,> 100 µM (inactive),–
COc1cc(/C=N/N=C(\N)NO)ccc1O,> 100 µM (inactive),39.9 µM (inactive),–,GI50 (SNB-78): > 100 µM (inactive)
CC(C)(C)OC(=O)NCCC1SC2C=CC1C2 (stereo unspecified),–,–,> 100 µM (inactive),–
CC(C)(CC(=O)Nc1ccccc1)C(=O)O,–,–,> 100 µM (inactive),–
O=C(O)C(CO)NC(=O)n1c2ccccc2c2ccccc21 (stereo unspecified),> 100 µM (inactive),> 100 µM (inactive),–,GI50 (HOP-18): > 100 µM (inactive); GI50 (DMS-273): > 100 µM (inactive); GI50 (XF498): > 100 µM (inactive)
COc1cc2c3c(c1O)-c1c(ccc(OC)c1OC)CC3N(C)CC2 (stereo unspecified),–,–,> 100 µM (inactive),–
COc1ccc2c(-c3ccc(OCCN(C)C)cc3)c(Oc3ccc(Cl)cc3)c(=O)oc2c1,–,–,14.7 µM (inactive),–

SMILES,GI50 (DLD-1),GI50 (DMS-114),GI50 (BT-549),other results
OCC(O)COCn1cc(Cn2ncc3c(NCc4ccccc4)ncnc32)nn1 (stereo unspecified),–,–,> 100 µM (inactive),–
C[C@@](Br)(C(=O)O)[C@H](Br)C(=O)O,–,–,> 100 µM (inactive),–
COc1cc(OCc2nc3ccccc3n3cccc23)cc(OC)c1OC,–,–,19.7 µM (inactive),–
COC(=O)C1=C(C(=O)OC)C(C(=O)OC)C(C(=O)OC)C(C(=O)OC)(C(=O)OC)C(C(=O)OC)=C1C(=O)OC (stereo unspecified),1.81 µM (inactive),8.91 µM (inactive),18.2 µM (inactive),GI50 (HOP-18): 17.1 µM (inactive); GI50 (KM-20L2): 17.7 µM (inactive); GI50 (SNB-78): 18.4 µM (inactive); GI50 (XF498): 12.2 µM (inactive)
COc1cccc(CSCC(=O)O)c1,–,–,> 100 µM (inactive),–
C/C=C1/CN2CCC34c5ccccc5N(C)C23C2CC1C4(C(=O)OC)C(OC(C)=O)O2 (stereo unspecified),–,–,> 100 µM (inactive),–
Cn1cnc([N+](=O)[O-])c1Sc1nnc(C(F)(F)F)n1C,16.4 µM (inactive),34.6 µM (inactive),–,GI50 (HOP-18): 19.5 µM (inactive); GI50 (DMS-273): 25.6 µM (inactive); GI50 (RXF 631): 17.6 µM (inactive); GI50 (SNB-78): 26.2 µM (inactive)
O=C(N/C(=C\c1cc(Cl)ccc1Cl)c1nc2cc(Cl)ccc2[nH]1)c1ccccc1,12.8 µM (inactive),15.4 µM (inactive),–,GI50 (KM-20L2): 18.2 µM (inactive); GI50 (SNB-78): 21.7 µM (inactive)
COc1cc(O)c2c(c1)C(O)C(O)CC1OC1C(=O)/C=C/CC(C)OC2=O (stereo unspecified),–,–,0.979 µM (active),–
COC(=O)C1=C(\c2ccccc2)c2ccccc2C(=O)N(C2CCCCC2)/C=C\1,–,–,23.1 µM (inactive),–
COC(=O)C(Cl)=C1CC1,23.6 µM (inactive),31 µM (inactive),–,GI50 (KM-20L2): > 100 µM (inactive); GI50 (DMS-273): 31.6 µM (inactive); GI50 (SNB-78): 49.1 µM (inactive); GI50 (XF498): 29.4 µM (inactive)
N#CC1CCCCCCCCCCC(=O)N(CCCl)C1=O (stereo unspecified),> 100 µM (inactive),> 100 µM (inactive),–,GI50 (KM-20L2): > 100 µM (inactive); GI50 (DMS-273): > 100 µM (inactive); GI50 (SNB-78): > 100 µM (inactive); GI50 (XF498): > 100 µM (inactive)
O=C(O)C1=Cc2cccc3cccc(c23)C1=O,> 100 µM (inactive),> 100 µM (inactive),–,GI50 (HOP-18): > 100 µM (inactive); GI50 (KM-20L2): > 100 µM (inactive); GI50 (DMS-273): > 100 µM (inactive)
C[C@H](CCC(=O)O)[C@H]1CC[C@H]2[C@@H]3[C@@H](O)C[C@@H]4C[C@H](O)CC[C@]4(C)[C@H]3CC[C@]12C,–,–,38.8 µM (inactive),–
CCOC(C)C(/C=N/NC(N)=S)=NNC(N)=S (stereo unspecified) [GLOXAZONE],> 100 µM (inactive),< 0.01 µM (active),–,GI50 (SNB-78): 53.7 µM (inactive)
CCCCCCCCCCCCCCCCOCC(CP(=O)([O-])OCC[n+]1ccccc1)OC (stereo unspecified),2.81 µM (inactive),11.4 µM (inactive),–,GI50 (DMS-273): 2.04 µM (inactive); GI50 (RXF 631): 14.6 µM (inactive); GI50 (SNB-78): 15.9 µM (inactive); GI50 (XF498): 12.1 µM (inactive)
O=C1Nc2c(ccc(Cl)c2I)C1=O,18.5 µM (inactive),15.5 µM (inactive),–,GI50 (KM-20L2): 30 µM (inactive); GI50 (DMS-273): 17 µM (inactive); GI50 (XF498): 16 µM (inactive)
